Laboratory results taken from publication PMC6940354, “Comparative Assessment of the New PDE7 Inhibitor – GRMS-55 and Lisofylline in Animal Models of Immune-Related Disorders: A PK/PD Modeling Approach” (Pharmaceutical Research, 2020).
Values after ≈ are worked out from the molar mass of the structure shown. Values joined by “and” are separate entries in the source; they are usually repeats but may differ in a detail not shown here. Equal entries are not always repeated.

Experiments:
[1] = molecular target: hrPDE5A (Homo sapiens, UniProt O76074); test: PDE-Glo Phosphodiesterase Assay, hrPDE5A
Description: (§1) Inhibitory activity of the investigated and reference compounds against various subtypes of PDEs was analyzed using the PDE-Glo Phosphodiesterase Assay following the manufacturer’s instruction (Promega Corp., USA). […] The values of IC50, Imax, and γ parameters of the investigated and reference compounds were estimated using non-linear regression in Phoenix WinNonlin v. […] Each sample was performed in quadruplicate and the relative activity of each sample was calculated as E=sample activity/control activity·100% .
(§2) One and a half μL aliquots of PDE-Glo reaction buffer containing appropriate amounts of human recombinant PDE (hrPDE) 1B, 2A, 3A, 4B, 4D, 5A, 7A, or 10A (SignalChem, Richmond, Canada) were placed into separate wells of a 384-well plate (Thermo Scientific, USA). The investigated compounds were initially dissolved in DMSO and then a serial dilution with DMSO was performed. Each dilution was mixed with PDE-Glo reaction buffer at a ratio of 1:5 (v/v). Then, 1 μL of the solution containing a PDE inhibitor and 2.5 μL of the substrate solution were added to each well. cGMP was used as a substrate in the case of hrPDE2A and hrPDE5A, while cAMP for other types of hrPDEs. The samples were incubated for 10 min at 30°C. […] The luminescence of each sample was measured by a microplate reader POLARstar Omega (BMG LABTECH, Germany).

[2] = molecular target: hrPDE10A (Homo sapiens, UniProt Q9Y233); test: PDE-Glo Phosphodiesterase Assay, hrPDE10A
Sequence of hrPDE10A (Q9Y233 whole entry): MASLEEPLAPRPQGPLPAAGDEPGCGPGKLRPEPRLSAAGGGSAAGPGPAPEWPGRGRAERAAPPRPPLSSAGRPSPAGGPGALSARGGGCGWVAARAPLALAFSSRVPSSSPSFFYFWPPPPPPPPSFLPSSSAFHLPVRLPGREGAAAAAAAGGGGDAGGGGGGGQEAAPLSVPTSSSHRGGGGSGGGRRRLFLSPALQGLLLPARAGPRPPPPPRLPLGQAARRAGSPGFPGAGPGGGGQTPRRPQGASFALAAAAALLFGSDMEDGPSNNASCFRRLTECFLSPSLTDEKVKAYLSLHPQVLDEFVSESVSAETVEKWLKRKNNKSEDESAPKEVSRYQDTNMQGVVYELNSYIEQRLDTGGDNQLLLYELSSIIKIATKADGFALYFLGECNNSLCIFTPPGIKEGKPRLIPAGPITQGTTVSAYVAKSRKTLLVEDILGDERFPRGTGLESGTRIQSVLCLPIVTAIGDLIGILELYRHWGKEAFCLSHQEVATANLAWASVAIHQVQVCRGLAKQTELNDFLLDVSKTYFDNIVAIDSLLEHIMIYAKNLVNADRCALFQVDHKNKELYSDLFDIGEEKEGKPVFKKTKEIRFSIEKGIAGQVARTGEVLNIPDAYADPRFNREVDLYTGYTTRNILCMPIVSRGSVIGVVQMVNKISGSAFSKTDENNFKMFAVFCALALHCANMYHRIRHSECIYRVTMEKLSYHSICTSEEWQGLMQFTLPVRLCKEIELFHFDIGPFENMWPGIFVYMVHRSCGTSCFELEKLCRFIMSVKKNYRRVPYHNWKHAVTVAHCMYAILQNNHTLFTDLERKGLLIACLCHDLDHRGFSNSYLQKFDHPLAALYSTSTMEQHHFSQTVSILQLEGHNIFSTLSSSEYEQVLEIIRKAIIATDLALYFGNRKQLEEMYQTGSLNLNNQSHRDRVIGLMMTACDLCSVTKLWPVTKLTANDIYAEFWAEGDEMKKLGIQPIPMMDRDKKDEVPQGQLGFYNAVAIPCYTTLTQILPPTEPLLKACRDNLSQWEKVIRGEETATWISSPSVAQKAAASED
Description: as §1, §2

[3] = molecular target: hrPDE4D (Homo sapiens, UniProt Q08499); test: PDE-Glo Phosphodiesterase Assay, hrPDE4D
Sequence of hrPDE4D (Q08499 whole entry): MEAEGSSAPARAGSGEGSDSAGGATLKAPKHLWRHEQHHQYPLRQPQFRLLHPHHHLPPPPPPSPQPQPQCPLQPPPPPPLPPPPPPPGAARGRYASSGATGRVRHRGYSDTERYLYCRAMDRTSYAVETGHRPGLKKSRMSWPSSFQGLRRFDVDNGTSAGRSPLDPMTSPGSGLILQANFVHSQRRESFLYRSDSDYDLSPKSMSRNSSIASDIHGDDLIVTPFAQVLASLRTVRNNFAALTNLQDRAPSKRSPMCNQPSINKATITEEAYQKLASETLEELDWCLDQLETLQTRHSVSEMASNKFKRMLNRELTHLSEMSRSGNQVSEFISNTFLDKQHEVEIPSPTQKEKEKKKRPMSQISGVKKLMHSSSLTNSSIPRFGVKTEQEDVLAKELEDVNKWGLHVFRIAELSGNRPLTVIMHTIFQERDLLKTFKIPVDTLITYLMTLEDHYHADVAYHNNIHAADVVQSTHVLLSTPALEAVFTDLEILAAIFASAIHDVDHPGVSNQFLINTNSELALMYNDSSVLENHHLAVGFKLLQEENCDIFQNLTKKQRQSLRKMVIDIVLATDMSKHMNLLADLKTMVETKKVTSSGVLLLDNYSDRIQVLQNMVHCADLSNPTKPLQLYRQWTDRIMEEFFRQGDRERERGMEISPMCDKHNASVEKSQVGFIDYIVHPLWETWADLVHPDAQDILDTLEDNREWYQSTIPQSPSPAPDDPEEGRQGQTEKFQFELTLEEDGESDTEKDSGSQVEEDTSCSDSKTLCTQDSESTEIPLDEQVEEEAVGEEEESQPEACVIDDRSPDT
Description: as §1, §2

[4] = molecular target: T1, hrPDE4B (Homo sapiens, UniProt Q07343); test: PDE-Glo Phosphodiesterase Assay, hrPDE4B; type: biochemical; settings: for hrPDE4B inhibitory activity, times weaker than rolipram: ratio to the reference compound rolipram
T1 construct: purchased SignalChem, Richmond, Canada
T1 sequence (Q07343 whole entry): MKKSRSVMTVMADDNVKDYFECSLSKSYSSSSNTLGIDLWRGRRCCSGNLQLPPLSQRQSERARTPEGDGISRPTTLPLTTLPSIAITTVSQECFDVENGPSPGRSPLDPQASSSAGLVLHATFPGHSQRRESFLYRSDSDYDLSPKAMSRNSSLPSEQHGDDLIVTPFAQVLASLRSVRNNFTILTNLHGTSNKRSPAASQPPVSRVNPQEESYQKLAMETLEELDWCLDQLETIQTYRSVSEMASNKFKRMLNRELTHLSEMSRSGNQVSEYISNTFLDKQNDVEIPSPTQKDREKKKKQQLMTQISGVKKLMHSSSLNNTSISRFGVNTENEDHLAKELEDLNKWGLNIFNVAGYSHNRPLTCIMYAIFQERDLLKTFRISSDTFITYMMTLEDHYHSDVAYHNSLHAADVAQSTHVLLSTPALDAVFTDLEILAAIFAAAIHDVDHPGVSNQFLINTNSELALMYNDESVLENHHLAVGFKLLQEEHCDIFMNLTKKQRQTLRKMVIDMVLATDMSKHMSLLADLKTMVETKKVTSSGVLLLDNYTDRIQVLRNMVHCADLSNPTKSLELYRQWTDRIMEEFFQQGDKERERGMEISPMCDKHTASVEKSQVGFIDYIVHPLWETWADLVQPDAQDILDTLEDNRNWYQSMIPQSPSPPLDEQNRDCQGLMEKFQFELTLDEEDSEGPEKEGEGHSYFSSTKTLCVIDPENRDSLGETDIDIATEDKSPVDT
Description: as §1
One and a half μL aliquots of PDE-Glo reaction buffer containing appropriate amounts of human recombinant PDE (hrPDE) 1B, 2A, 3A, 4B, 4D, 5A, 7A, or 10A (SignalChem, Richmond, Canada) were placed into separate wells of a 384-well plate (Thermo Scientific, USA). The investigated compounds were initially dissolved in DMSO and then a serial dilution with DMSO was performed. Each dilution was mixed with PDE-Glo reaction buffer at a ratio of 1:5 (v/v). Then, 1 μL of the solution containing a PDE inhibitor and 2.5 μL of the substrate solution were added to each well. cGMP was used as a substrate in the case of hrPDE2A and hrPDE5A, while cAMP for other types of hrPDEs. The samples were incubated for 10 min at 30°C. Subsequently, 2.5 μL volumes of PDE-Glo Termination Buffer and PDE-Glo Detection Solution were added to each well and after 20 min of incubation at room temperature, 10 μL of Kinase-Glo Reagent was added to each well. The luminescence of each sample was measured by a microplate reader POLARstar Omega (BMG LABTECH, Germany).

[5] = tested on: TNF-α release from LPS-stimulated whole rat blood; test: Inhibition of LPS-induced TNF-α release in whole rat blood; type: cell-based
Description: Stimulation of whole rat blood by LPS was performed on 96-well plates. […] Contents of each well (200 μL) consisted of heparinized rat blood containing 10 U heparin mL^−1 diluted with RPMI-1640 medium at a ratio of 1:1 (v/v). All compounds were dissolved in DMSO and added to blood (the final DMSO concentration in blood was 0.5%) 15 min prior to the addition of LPS dissolved in RPMI-1640 medium to achieve the LPS concentration of 10 mg L^−1. Both, LPS and DMSO were also added to control wells at the same concentrations. Additional control samples (for testing baseline TNF-α levels in blood) consisted of DMSO (0.5%) without LPS. The incubation was performed at 37°C in a humidified atmosphere of 5% CO2 in an MCO-5 AC-PE incubator (PHCbi, Japan). After 6 h of incubation, the plates were centrifuged for 10 min using PlateFuge MicroCentrifuge (Benchmark Scientific, USA). The individual plasma samples were harvested and stored at −80°C until analysis.
TNF-α levels in LPS-stimulated rat blood in vitro and in rat plasma samples from the in vivo studies were analyzed by the Rat TNF-α Quantikine ELISA Immunoassay Kit (R&D Systems, USA) according to the manufacturer’s instructions. The assay was linear at the range of 12.5–800 pg mL^−1. Levels of TNF-α in mice serum were measured by ELISA Kits for Tumor Necrosis Factor Alpha (Cloud-Clone Corp., USA). This assay was linear at the range of 15.6–1000 pg mL^−1. Absorbance was measured at 450 nm using a POLARstar Omega multi-mode microplate reader (BMG LABTECH, Germany).

[6] = molecular target: T2, hrPDE1B (Homo sapiens, UniProt Q01064); test: PDE-Glo Phosphodiesterase Assay, hrPDE1B; type: biochemical; settings: cAMP substrate, read-out: IC50 PDE1B, Estimate (CV%)
T2 construct: purchased SignalChem, Richmond, Canada
T2 sequence (Q01064 whole entry): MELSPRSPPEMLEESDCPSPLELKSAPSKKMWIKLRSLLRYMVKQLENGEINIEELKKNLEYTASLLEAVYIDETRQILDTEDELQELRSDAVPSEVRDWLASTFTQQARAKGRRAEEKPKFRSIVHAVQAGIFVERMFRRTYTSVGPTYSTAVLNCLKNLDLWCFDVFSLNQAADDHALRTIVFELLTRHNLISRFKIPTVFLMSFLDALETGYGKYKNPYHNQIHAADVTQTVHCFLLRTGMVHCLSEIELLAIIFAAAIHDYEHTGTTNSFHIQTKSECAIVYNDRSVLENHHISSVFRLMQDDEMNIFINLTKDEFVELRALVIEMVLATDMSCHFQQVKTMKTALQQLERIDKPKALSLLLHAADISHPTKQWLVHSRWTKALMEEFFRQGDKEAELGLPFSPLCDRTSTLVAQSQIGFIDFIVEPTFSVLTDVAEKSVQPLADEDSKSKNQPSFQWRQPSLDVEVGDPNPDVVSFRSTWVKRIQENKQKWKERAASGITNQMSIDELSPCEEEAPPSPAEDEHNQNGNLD
Description: as §1, §2

[7] = molecular target: hrPDE3A (Homo sapiens, UniProt Q14432); test: PDE-Glo Phosphodiesterase Assay, hrPDE3A
Sequence of hrPDE3A (Q14432 whole entry): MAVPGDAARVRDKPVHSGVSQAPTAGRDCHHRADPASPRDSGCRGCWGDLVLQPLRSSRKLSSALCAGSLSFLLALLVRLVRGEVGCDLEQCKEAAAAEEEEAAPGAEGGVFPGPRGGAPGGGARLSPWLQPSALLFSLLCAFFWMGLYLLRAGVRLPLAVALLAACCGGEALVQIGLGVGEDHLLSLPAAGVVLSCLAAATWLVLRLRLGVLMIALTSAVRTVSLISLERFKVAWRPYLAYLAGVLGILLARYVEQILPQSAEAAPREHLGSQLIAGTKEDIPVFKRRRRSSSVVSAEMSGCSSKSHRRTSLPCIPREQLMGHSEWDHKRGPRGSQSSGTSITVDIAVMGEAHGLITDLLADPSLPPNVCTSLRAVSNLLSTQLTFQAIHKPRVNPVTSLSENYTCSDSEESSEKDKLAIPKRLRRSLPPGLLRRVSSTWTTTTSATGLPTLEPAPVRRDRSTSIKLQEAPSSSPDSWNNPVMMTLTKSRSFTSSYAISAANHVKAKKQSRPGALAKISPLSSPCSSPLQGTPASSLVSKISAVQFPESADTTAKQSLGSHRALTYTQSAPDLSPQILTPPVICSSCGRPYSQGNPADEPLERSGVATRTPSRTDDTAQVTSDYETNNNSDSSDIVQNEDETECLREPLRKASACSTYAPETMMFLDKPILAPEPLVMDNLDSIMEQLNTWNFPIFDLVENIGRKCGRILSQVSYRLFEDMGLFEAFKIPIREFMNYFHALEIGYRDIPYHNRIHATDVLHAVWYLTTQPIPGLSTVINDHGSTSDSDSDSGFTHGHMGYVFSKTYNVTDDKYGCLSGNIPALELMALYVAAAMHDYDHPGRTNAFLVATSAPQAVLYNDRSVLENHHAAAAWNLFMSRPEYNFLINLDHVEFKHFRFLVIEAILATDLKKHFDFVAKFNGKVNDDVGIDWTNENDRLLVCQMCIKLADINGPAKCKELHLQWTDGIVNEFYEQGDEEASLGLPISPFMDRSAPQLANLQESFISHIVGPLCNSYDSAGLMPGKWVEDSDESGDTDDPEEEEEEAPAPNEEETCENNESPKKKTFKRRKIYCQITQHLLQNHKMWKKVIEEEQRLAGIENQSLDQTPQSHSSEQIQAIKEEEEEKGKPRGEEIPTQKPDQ
Description: as §1, §2

[8] = tested on: collagen-induced arthritis (CIA) in female Lewis rats; test: Collagen-induced arthritis in rats, paw swelling, PK/PD/DIS progression model; type: in vivo, rat; settings: for decrease of relative paw swelling: at the last observation time point, once daily from day 20: rolipram 10 mg kg^−1 IP, GRMS-55 50 mg kg^−1 IP, (±)-LSF 80 mg kg^−1 SC
Description: The emulsion of collagen was prepared according to the Protocol for the Successful Induction of Collagen-Induced Arthritis (CIA) in Rats (Chondrex Inc., 2015). Porcine type II collagen dissolved in 0.05 M acetic acid was emulsified with incomplete Freund’s adiuvant (Sigma Aldrich, Germany) using an Omni TH Homogenizer (Omni International, Inc., USA) consisting of a blade with 5 mm diameter. The collagen solution was previously mixed with IFA at a low speed for 1 min and then at the highest speed for 2 min. Then emulsion was being cooled for 5 min in an ice water bath. The emulsification process was repeated 3 times to obtain a stiff emulsion. The emulsion was then transferred into a Hamilton glass syringe, kept at 4°C, and used within 2 h.
At a day 0 of the experiment animals were subcutaneously (SC) injected at the base of the tail with 200 μL of the emulsion using a 27 gauge × 5/8″ needle and Hamilton syringe. At day 7 after the initial immunization, a booster injection with 100 μL of emulsion was performed. Ninety % of rats developed symptoms of disease (paw swelling >150% of day 0) at day 20 of the experiment. At this day, diseased animals were randomly divided into five groups (n = 6). […] One investigated group received (±)-LSF dissolved in saline at an SC dose of 80 mg kg^−1 once daily. The corresponding control groups were administered with appropriate volumes of vehicles IP or SC. At day 40 animals were sacrificed. Hind paws of rats were taken and immersed into 4% buffered formalin solution for a subsequent histological analysis. Blood samples were collected and allowed to clot for 20 min and then centrifuged at 2000 x g for 15 min. Serum samples were collected and frozen at -80°C.
Paw edema of arthritic rats was assessed as swelling of the rat hind paws. Measurements of paws were performed using a digital caliper according to the procedure described by Earp et al. ([18]). Each hind leg was measured at two sections, i.e., paw and ankle, and each section was measured at two places (side-to-side and top-to-bottom). The area of each section (elliptical in shape) was calculated from the following equation:2 Area=π·a·b/4 where (a) is side-to-side diameter of the ellipse and (b) is top-to-bottom diameter of the ellipse. Paw and ankle section areas of each leg were subsequently added to obtain one overall measure for the rat hind paw (Areaoverall). Each of these measures was normalized to the same hind paw area measured at day 0 of the experiment (Areazero) to reduce variation in the disease progression resulting from differences in paw size of each rat. Relative paw swelling (Paw) was calculated according to the equation:3 Paw=Areaoverall/Areazero
Paw size was measured at days 0, 5, 7, 11, 15, 18, 20, 22, 26, 30, 33, and 36 after the first immunization. […]

[9] = molecular target: T3, hrPDE2A (Homo sapiens, UniProt O00408); test: PDE-Glo Phosphodiesterase Assay, hrPDE2A; type: biochemical; settings: cGMP substrate, read-out: IC50 PDE2A, Estimate (CV%)
T3 construct: purchased SignalChem, Richmond, Canada
Description: as §1, §2

[10] = LPS 10 mg L^−1, 6 h incubation, compared to LPS-treated control
[11] = Rattus norvegicus, 480 h, read-out: IC50, concentration producing 50% of maximal inhibition (CIA progression), Final estimate (CV%)

IC50 [1] | IC50 [2] | IC50 [3] | IC50 ([4]; hrPDE4B, cAMP substrate, read-out: IC50 PDE4B, Estimate (CV%)) | hrPDE4B inhibitory activity, times weaker than rolipram [4] | IC50 [6] | IC50 [7] | IC50 [9] | PDE4B inhibitory potency of GRMS-55 relative to (±)-LSF ([4]; GRMS-55 more potent than (±)-LSF in vitro) | IC50 at 50 mg/kg [8, 11] | SMILES | Reduction of TNF-α levels in LPS-stimulated whole rat blood (result in words) [5, 10] | decrease of relative paw swelling [8] | Inhibition of TNF-α release in LPS-stimulated whole rat blood (result in words) ([5]; levels of 50 and 250 μM, compared to the control wells) | Reduction of TNF-α levels in LPS-stimulated whole rat blood (result in words) ([5]; concentration of 50 μM, compared to the control group) | IC50 [8, 11]
> 100 µM | > 100 µM | > 200 µM | 50.8 µM | 45 times | 12.9 µM | 73.4 µM | 91.6 µM |  |  | CC(O)CCCCn1c(=O)c2c(ncn2C)n(C)c1=O (racemic) [(±)-LSF, lisofylline] | significantly and with similar potency reduced | 30.5% |  |  | 
> 100 µM | 23.3 µM | > 200 µM |  | 24 times | 2.5 µM | 13.4 µM | > 100 µM | ~ 2 times and ~ 2.0 times | 0.26 µg/mL (≈ 0.516 µM) | Cn1c(=O)c2c(nc(NCCc3ccccc3)n2CCCC(=O)NN=Cc2ccccc2O)n(C)c1=O [GRMS-55, 4-(1,3-Dimethyl-2,6-dioxo-8-(phenethylamino)-2,3,6,7-tetrahydro-1H-purin-7-yl)-N′-(2-hydroxybenzylidene)butanehydrazide] | did not exhibit activity | 31.5% | failed to inhibit TNF-α release |  | 
 |  |  |  |  |  |  |  |  |  | COc1ccc(C2CNC(=O)C2)cc1OC1CCCC1 (stereo not drawn) [Rolipram, rolipram] |  |  |  | completely reduced | 0.01 µg/mL (≈ 0.0363 µM)
